Tests used:
[1] = target: T1, α2δ-subunit of a calcium channel (Sus scrofa, UniProt A0A287BIN3); experiment: radioligand binding assay using [3H]-gabapentin; settings: α2δ-subunit derived from porcine brain tissue
T1 construct: the α2δ-subunit derived from porcine brain tissue was used; from tissue; host or cells: porcine brain tissue
Description: The ability of compounds of the present invention to bind to the α2δ-subunit of a calcium channel can be determined using the following binding assay.
The radioligand binding assay using [^3H]-gabapentin and the α2δ-subunit derived from porcine brain tissue was used. See Nicolas S. Gee et al., “The novel anticonvulsant drug, gabapentin (Neurontin), binds to the α2 subunit of a calcium channel,” J. Biol. Chem. 271 (10):5768-76 (1996). Compounds of the invention bind with nanomolar to micromolar affinity for the α2δ protein.

T1 sequence (A0A287BIN3 25-1109): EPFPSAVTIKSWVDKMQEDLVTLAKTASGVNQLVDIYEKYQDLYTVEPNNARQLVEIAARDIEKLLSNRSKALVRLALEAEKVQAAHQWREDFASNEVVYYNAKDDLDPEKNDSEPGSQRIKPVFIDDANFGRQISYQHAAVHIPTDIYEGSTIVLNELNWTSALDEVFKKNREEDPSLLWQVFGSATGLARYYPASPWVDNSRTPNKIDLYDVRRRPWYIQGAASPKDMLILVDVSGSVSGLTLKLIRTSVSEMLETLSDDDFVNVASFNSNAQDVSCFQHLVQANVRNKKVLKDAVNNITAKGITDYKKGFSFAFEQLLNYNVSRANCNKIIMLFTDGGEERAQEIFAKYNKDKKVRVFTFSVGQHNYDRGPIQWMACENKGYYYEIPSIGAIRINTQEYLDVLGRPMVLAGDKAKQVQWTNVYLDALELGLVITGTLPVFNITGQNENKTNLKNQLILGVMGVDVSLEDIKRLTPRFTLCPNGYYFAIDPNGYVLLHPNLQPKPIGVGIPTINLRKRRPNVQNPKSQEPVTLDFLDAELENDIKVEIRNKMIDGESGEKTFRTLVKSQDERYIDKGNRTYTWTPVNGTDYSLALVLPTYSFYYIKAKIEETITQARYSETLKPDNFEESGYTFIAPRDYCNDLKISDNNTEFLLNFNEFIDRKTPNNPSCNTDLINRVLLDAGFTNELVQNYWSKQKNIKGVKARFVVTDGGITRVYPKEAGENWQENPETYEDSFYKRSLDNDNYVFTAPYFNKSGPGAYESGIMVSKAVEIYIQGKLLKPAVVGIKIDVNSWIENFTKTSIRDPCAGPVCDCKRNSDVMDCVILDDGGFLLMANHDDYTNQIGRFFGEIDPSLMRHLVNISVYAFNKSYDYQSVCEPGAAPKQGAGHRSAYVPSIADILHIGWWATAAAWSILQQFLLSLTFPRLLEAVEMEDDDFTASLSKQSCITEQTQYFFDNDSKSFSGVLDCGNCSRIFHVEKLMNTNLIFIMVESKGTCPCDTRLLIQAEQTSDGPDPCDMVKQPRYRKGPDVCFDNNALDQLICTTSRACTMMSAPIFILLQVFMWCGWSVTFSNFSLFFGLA

melting point [°C] | Compound | affinity to the α2δ protein [1] [nM]
– | CC[C@@H](C)C[C@](C)(N)CC(=O)O [(3S,5R)-3-amino-3,5-dimethyl-heptanoic acid] | 236
– | CCC(CC)C[C@](C)(N)CC(=O)O [(S)-3-amino-5-ethyl-3-methyl-heptanoic acid] | 149
215 to 217 | CC[C@H](C)C[C@](C)(N)CC(=O)O | –
– | CCCCC(CC)CCC(CN)C(=O)O (stereo not shown) [2-aminomethyl-5-ethyl-nonanoic acid] | 75

— patent US20050124668A1, “Amino acids with affinity for the alpha2delta-protein” (priority 2003, published 2005)
